Measured values from patent US20200239530A1, “COMPOUNDS AND METHODS OF MODULATING PROTEIN DEGRADATION” (Vividion Therapeutics, Inc., priority 2017, published 2020).
Where two headings read alike, the source gives them in different places.

Columns and labels:
Assay in all cases: Cysteine liganding, probe competition
Assay type in all cases: binding
UniProt Q96EH8 = target: T1, UniProt Q96EH8 (Homo sapiens, UniProt Q96EH8); details: for inhibition at 500 µM: read-out: percent inhibition
T1 construct: Cells were resuspended in cold PBS on ice and sonicated with a probe sonicator to achieve lysis; endogenous in cells
T1 sequence (Q96EH8 1-262): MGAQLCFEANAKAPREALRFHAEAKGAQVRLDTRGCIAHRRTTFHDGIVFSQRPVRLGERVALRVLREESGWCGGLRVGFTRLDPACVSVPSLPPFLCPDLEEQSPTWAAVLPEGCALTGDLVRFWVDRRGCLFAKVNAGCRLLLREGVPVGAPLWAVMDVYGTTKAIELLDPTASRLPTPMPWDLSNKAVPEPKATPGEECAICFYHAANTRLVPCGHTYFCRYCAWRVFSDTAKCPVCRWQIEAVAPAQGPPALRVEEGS
Excerpt: (§1) The following 96-well sample prep protocol was used for sample preparation.

UniProt Q9H0F5 = target: T2, UniProt Q9H0F5 (Homo sapiens, UniProt Q9H0F5); details: for percent_inhibition / inhibition at 500 µM: 500 uM
T2 construct: 200 μL of lysate containing 5 mg/ml proteome was treated with 2 μL of 100× compound stock; endogenous in cells
T2 sequence (Q9H0F5 whole entry, change not shown): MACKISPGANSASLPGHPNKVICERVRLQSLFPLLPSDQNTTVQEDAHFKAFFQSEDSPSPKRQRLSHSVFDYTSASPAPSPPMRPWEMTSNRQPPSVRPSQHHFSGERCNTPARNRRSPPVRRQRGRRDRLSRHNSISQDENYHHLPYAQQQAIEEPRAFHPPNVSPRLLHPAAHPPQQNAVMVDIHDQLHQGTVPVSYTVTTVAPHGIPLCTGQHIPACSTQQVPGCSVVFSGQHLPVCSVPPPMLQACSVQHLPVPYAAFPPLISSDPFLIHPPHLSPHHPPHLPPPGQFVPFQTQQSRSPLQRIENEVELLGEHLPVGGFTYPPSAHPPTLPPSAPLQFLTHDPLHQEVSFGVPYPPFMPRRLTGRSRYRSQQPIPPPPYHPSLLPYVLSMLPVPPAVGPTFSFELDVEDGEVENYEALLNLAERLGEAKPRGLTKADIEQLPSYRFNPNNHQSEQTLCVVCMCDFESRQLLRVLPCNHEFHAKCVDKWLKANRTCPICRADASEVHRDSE
Excerpt: as §1

UniProt Q9H0A6 = target: T3, UniProt Q9H0A6 (Homo sapiens, UniProt Q9H0A6)
T3 construct: 200 μL of lysate containing 5 mg/ml proteome was treated with 2 μL of 100× compound stock; endogenous in cells
T3 sequence (Q9H0A6 whole entry, change not shown): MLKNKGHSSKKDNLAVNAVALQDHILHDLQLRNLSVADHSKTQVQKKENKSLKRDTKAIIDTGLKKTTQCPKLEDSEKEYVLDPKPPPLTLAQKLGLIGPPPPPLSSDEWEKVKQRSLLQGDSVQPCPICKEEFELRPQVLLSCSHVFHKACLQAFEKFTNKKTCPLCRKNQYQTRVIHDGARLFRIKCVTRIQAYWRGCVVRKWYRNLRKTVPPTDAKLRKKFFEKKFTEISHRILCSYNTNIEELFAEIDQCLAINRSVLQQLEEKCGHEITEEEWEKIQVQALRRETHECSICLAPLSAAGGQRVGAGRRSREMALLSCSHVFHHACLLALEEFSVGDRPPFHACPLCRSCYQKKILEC
Excerpt: as §1

UniProt Q6IQ16 = target: T4, UniProt Q6IQ16 (Homo sapiens, UniProt Q6IQ16)
T4 construct: 200 μL of lysate containing 5 mg/ml proteome was treated with 2 μL of 100× compound stock; endogenous in cells
T4 sequence (Q6IQ16 1-392): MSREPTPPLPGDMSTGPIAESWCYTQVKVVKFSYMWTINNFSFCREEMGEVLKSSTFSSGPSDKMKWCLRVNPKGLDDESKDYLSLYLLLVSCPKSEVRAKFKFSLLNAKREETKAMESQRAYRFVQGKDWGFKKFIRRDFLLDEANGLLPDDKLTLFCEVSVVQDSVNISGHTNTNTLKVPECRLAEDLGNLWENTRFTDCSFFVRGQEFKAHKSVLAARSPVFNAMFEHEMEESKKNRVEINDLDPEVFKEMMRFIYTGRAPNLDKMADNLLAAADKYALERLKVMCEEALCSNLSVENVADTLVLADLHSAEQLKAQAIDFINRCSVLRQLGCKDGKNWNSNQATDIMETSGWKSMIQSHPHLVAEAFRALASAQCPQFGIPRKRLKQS
Excerpt: as §1

UniProt Q6ZMU5 = target: T5, UniProt Q6ZMU5 (Homo sapiens, UniProt Q6ZMU5)
T5 construct: 200 μL of lysate containing 5 mg/ml proteome was treated with 2 μL of 100× compound stock; endogenous in cells
T5 sequence (Q6ZMU5 1-477): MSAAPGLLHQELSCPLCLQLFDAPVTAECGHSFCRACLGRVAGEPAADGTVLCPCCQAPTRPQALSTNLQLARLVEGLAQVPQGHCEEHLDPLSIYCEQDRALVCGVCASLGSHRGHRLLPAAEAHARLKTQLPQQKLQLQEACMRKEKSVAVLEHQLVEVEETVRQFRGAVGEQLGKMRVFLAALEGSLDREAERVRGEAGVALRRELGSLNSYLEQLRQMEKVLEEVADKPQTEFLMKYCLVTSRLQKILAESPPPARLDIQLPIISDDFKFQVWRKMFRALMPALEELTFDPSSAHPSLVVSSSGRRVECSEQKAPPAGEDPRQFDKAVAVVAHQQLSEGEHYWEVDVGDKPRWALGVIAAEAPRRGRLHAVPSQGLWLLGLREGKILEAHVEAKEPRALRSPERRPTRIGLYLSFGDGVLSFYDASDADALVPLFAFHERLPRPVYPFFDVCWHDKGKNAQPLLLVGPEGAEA
Excerpt: as §1

UniProt Q969K3 = target: T6, UniProt Q969K3 (Homo sapiens, UniProt Q969K3)
T6 construct: 200 μL of lysate containing 5 mg/ml proteome was treated with 2 μL of 100× compound stock; endogenous in cells
T6 sequence (Q969K3 whole entry, change not shown): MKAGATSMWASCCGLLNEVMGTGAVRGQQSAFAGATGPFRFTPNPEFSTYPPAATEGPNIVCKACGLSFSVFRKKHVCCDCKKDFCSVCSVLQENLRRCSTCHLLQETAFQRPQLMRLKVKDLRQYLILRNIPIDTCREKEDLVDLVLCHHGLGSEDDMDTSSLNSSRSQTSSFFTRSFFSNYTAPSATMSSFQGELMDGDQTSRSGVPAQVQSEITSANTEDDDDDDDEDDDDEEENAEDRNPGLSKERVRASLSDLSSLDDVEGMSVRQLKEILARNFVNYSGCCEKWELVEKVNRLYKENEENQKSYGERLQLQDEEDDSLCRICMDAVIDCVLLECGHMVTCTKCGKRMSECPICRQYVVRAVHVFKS
Excerpt: as §1

UniProt Q9BZR9 = target: T7, UniProt Q9BZR9 (Homo sapiens, UniProt Q9BZR9)
T7 construct: 200 μL of lysate containing 5 mg/ml proteome was treated with 2 μL of 100× compound stock; endogenous in cells
T7 sequence (Q9BZR9 1-551): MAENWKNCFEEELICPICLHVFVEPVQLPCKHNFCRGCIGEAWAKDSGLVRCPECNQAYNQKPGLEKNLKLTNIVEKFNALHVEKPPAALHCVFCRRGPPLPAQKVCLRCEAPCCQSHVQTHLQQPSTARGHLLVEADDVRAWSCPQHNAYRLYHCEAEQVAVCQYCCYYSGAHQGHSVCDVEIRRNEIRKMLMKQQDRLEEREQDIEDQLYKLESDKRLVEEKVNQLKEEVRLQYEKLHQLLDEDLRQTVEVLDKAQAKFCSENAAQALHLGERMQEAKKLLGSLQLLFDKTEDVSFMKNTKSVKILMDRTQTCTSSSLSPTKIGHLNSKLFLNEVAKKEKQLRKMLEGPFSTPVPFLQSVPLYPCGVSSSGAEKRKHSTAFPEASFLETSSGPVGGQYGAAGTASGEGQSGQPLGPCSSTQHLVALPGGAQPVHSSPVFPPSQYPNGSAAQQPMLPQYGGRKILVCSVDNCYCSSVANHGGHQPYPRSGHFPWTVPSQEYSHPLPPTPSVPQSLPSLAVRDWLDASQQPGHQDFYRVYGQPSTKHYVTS
Excerpt: as §1

[1] = 100 uM, read-out: percent_inhibition
[2] = 500 uM, read-out: percent_inhibition
[3] = read-out: KB05_100 uM_percent_inhibition

SMILES: COc1ccc2c(c1)CCCN2C(=O)CCl [KB02]
- percent inhibition (UniProt Q96EH8; 500 uM): 54%
- inhibition at 500 µM (UniProt Q96EH8): 40%
- inhibition at 100 µM (UniProt Q9H0F5; [1]): 44%
- percent_inhibition (UniProt Q9H0F5): 42%
- inhibition at 500 µM (UniProt Q9H0F5; read-out: percent_inhibition): 24%
- inhibition at 100 µM (UniProt Q9H0A6; [1]): 44%
- inhibition at 500 µM (UniProt Q9H0A6; [2]): 42%
- inhibition at 100 µM (UniProt Q6IQ16; read-out: percent_inhibition): 16%
- inhibition at 100 µM (UniProt Q6ZMU5; read-out: KB02_100 uM_percent_inhibition): 36%

SMILES: C=CC(=O)N(c1ccccc1)c1ccc(Br)cc1 [KB05]
- inhibition at 100 µM (UniProt Q969K3; read-out: percent_inhibition): 8%
- inhibition at 500 µM (UniProt Q96EH8): 44%
- percent_inhibition (UniProt Q9H0F5): 10%
- inhibition at 500 µM (UniProt Q9H0F5; read-out: percent_inhibition): 16%
- percent_inhibition (UniProt Q9H0A6; 500 uM): 10%
- inhibition at 500 µM (UniProt Q9H0A6; [2]): 16%
- inhibition at 100 µM (UniProt Q6IQ16; read-out: percent_inhibition): 20%
- percent_inhibition (UniProt Q6IQ16; 500 uM): 57%
- inhibition at 500 µM (UniProt Q6IQ16; [2]): 44%
- KB05_100 uM_percent_inhibition (UniProt Q9BZR9; 100 uM): 16%
- inhibition at 100 µM (UniProt Q9BZR9; [3]): 10%
- KB05_100 uM_percent_inhibition (UniProt Q6ZMU5; 100 uM): 8%
- inhibition at 100 µM (UniProt Q6ZMU5; [3]): 6%

SMILES: O=C(CCl)Nc1cc(C(F)(F)F)cc(C(F)(F)F)c1 [KBO3]
- percent_inhibition (UniProt Q969K3; 100 uM): 18%
- KB03_100 uM_percent_inhibition (UniProt Q9BZR9; 100 uM): 39%
